Common to all, as to format: biochemical
Test [1] deals with p38α (Homo sapiens, UniProt Q16539). Nature of the test: […] kinase assay with recombinant active p38α.
Test [2] deals with p110α (PI3-K) (Homo sapiens, UniProt P42336). Nature of the test: […] lipid kinase assay with recombinant active p110α.
Test [3] has as its target ERK2 (Homo sapiens, UniProt P28482). Nature of the test: […] kinase assay with recombinant active ERK2.

Sequence of p38α (Q16539 2-360): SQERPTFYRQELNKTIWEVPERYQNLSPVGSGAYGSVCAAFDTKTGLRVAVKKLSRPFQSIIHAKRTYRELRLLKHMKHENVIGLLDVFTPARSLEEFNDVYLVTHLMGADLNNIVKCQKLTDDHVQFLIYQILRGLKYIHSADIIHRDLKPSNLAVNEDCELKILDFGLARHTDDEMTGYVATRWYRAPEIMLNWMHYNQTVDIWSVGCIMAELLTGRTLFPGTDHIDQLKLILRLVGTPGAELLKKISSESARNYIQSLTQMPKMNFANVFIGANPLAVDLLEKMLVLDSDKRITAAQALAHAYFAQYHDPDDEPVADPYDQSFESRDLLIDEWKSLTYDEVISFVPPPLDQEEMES
Sequence of ERK2 (P28482 2-360): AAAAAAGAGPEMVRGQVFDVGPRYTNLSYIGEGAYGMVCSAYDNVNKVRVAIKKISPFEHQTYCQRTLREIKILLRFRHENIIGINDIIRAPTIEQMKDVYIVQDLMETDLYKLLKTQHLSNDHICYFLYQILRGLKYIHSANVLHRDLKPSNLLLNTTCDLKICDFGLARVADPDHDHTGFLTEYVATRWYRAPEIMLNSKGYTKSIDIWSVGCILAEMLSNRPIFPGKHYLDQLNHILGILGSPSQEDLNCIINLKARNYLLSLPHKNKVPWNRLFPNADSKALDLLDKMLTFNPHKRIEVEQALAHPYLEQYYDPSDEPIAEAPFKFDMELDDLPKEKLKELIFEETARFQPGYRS
Sequence of p110α (PI3-K) (P42336 whole entry): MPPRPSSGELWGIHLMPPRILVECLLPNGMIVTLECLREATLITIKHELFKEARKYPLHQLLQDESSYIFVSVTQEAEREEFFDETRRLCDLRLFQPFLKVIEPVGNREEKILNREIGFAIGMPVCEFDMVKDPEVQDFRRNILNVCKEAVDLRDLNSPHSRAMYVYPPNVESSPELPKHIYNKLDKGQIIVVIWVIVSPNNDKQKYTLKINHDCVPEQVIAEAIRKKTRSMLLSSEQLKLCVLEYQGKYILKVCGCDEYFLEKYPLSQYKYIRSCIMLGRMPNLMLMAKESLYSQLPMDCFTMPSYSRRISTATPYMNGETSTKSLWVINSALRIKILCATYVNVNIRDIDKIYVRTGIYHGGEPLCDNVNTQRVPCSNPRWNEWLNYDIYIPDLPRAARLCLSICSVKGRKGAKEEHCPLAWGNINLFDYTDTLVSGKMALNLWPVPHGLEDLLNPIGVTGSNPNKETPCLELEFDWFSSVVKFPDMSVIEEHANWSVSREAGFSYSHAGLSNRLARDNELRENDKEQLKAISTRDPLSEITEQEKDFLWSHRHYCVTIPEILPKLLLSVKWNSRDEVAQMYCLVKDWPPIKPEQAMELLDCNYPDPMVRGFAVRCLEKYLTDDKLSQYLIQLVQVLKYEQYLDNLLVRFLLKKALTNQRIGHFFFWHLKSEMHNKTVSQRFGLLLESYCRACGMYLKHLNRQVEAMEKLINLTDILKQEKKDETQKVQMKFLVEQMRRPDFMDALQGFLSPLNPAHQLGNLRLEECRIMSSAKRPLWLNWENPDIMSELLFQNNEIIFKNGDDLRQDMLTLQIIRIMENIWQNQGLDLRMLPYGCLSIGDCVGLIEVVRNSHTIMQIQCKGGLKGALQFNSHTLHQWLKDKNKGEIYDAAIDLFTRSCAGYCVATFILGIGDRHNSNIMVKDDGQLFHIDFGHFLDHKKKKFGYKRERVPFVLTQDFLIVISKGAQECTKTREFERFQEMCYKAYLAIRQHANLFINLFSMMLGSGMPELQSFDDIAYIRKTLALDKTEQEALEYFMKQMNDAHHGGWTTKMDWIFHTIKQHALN

For the compound `O=C1CCC(O)(CCOC(=O)/C=C/c2ccc(O)c(O)c2)CC1` [HOEC, (+)-2-(1-hydroxyl-4-oxocyclohexyl) ethyl caffeate], the IC50 is 12.9 µM in test [1], 10.3 µM in test [2] and 20.9 µM in test [3].
